Source: patent US20190262266A1, “FORMULATIONS” (OXY SOLUTIONS AS, priority 2016, published 2019)
“Also recorded” adds a separate entry of the source. Read-outs that look alike come from different tables or passages of the source.

Legend:
[1] = system: human skin fibroblasts; experiment: Reactive oxygen species (ROS) production in human skin fibroblasts (DCFDA); details: 30 min; for ROS, relative fluorescence (×10^3): 5% FBS; for ROS production compared to control: DO 21-35 mg/L, 5% FBS (5% or 10% FBS), control 8.6 mg/L
Description: (§1) Oxygenated medium was prepared using powder cell medium, diluted with Oxy Water prepared according to Example 5. The mixing ratio depended on the desired concentration of dissolved oxygen in the final cell medium. DMEM or DMEM medium without phenol red was used (Sigma Aldrich). The medium was supplied with additives and FBS. The phenol red free cell medium was used for the ROS experiment to avoid disturbance of the fluorescent readings.
HSFs were seeded at a density of 2.5×10^4 cells/0.32 cm^2 and were grown to confluence overnight. The cells were stained with 20 uM DCFDA solution (2′,7′-dichlorofluorescin diacetate) (DCFDA Cellular ROS Detection Assay Kit, Abcam, Cambridge, UK) and incubated for 45 min at 37° C. protected from light exposure. Control cell medium (5% FBS, dissolved oxygen: 8.6 mg/L), oxygenated cell medium (5% FBS, dissolved oxygen: 21.6, 26.5, 34.9 mg/L) and positive control (500 μM H2O2, 5% FBS, dissolved oxygen: 8.6 mg/L) were added. The cells were incubated at room temperature. The fluorescence was read with an FLx800 plate reader (BioTek, Winooski, USA) with excitation wavelength at 485 nm and emission wavelength 520 nm, 30 min after adding the treatments. The values were corrected for blank readings and presented as relative fluorescence (×10^3). The experiments were repeated using 10% FBS.

[2] = system: human skin fibroblasts; details: DO up to 50 mg/L, DMEM w/1% FBS, control 11 mg/L; for cell viability / number of dead cells compared to control: 4 days; for proliferation compared to control: up to 4 days
Description: as §1
HSFs were seeded at a density of 5×10^4 cells/25 cm^2 and left overnight. The cells were treated with control cell medium (1% FBS, dissolved oxygen: 11 mg/L), oxygenated cell medium (1% FBS, dissolved oxygen: 23, 31, 41, 50 mg/L), or 10% FBS, dissolved oxygen: 10 mg/L. After stimulation, the cells were left at room temperature for 30 min, followed by incubation at 37° C. The treatment was repeated every 24 hours up to 4 days. On day 2, 3 and 4 the cells were harvested; the cell suspension was mixed with trypan blue and live cells were manually counted using a hemocytometer and dead cells were counted using a TC20 Automated cell counter (BioRad, USA). 1% Triton X was used as a positive control for cell death.

[3] = system: human skin fibroblasts
Description: as §1

O=O [dissolved oxygen]
ROS, relative fluorescence (×10^3) ([1]; 21.6 mg/L dissolved oxygen): 9.3±3.4
ROS, relative fluorescence (×10^3) ([1]; 26.5 mg/L dissolved oxygen): 15.2±4.5
ROS, relative fluorescence (×10^3) ([1]; 34.9 mg/L dissolved oxygen): 8.9±2.9
ROS production compared to control [1]: did not significantly change; also recorded: no significant increase
ROS production compared to control ([1]; listed as DO): no significant differences
cell viability / number of dead cells compared to control [2]: nor did it change the level of cell viability
cell viability / number of dead cells compared to control ([2]; listed as DO): did not significantly alter the number of dead cells
proliferation compared to control [2]: did not change cell proliferation
proliferation compared to control ([2]; listed as DO): did not significantly alter the proliferation rate
ATP levels ([3]; 33 mg/L DO, DMEM w/10% FBS, 4 h, re-stimulated at 1, 2 and 3 hours): 113.1 nm ATP/10^5 cells
levels of ATP ([3]; 33 mg/L dissolved oxygen, four hourly stimulations): 113.1±10.1 nM ATP/10^5 live cells
